Assay results as given in the supplement of paper PMC10307832.

Tests used:
Assay in all cases: relative viability (nuclei count vs DMSO), 5 days (fraction); higher = more cells survive
Pemetrexed + Navitoclax = compound: Nc1nc2[nH]cc(CCc3ccc(C(=O)N[C@@H](CCC(=O)O)C(=O)O)cc3)c2c(=O)[nH]1 [Pemetrexed] + CC1(C)CCC(c2ccc(Cl)cc2)=C(CN2CCN(c3ccc(C(=O)NS(=O)(=O)c4ccc(N[C@H](CCN5CCOCC5)CSc5ccccc5)c(S(=O)(=O)C(F)(F)F)c4)cc3)CC2)C1 [Navitoclax] (partner 0.5 µM)
How it was run: (§1)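 Cells from lung cancer lines were seeded into 1536-well plates and, one day later, dosed by pin tool. Treatments were either a single drug or a fixed dose of an anchor drug with five library-drug doses (not always all listed) in √10 steps. After 5 days, nuclei were stained in a one-step fixation (final 0.05% Triton X-100, 1% formaldehyde, 1 ug/ml Hoechst) and counted on 4× images, and relative viability is the treated-to-vehicle nuclei ratio, as the median of duplicate plates.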

Idelalisib + Linsitinib = compound: CC[C@H](Nc1ncnc2[nH]cnc12)c1nc2cccc(F)c2c(=O)n1-c1ccccc1 [Idelalisib] + C[C@]1(O)C[C@@H](c2nc(-c3ccc4ccc(-c5ccccc5)nc4c3)c3c(N)nccn32)C1 [Linsitinib] (partner 1 µM)
How it was run: as §1

Pemetrexed + Alpelisib = compound: Nc1nc2[nH]cc(CCc3ccc(C(=O)N[C@@H](CCC(=O)O)C(=O)O)cc3)c2c(=O)[nH]1 [Pemetrexed] + Cc1nc(NC(=O)N2CCC[C@H]2C(N)=O)sc1-c1ccnc(C(C)(C)C(F)(F)F)c1 [Alpelisib] (partner 2 µM)
How it was run: as §1

Idelalisib + Vorinostat = compound: CC[C@H](Nc1ncnc2[nH]cnc12)c1nc2cccc(F)c2c(=O)n1-c1ccccc1 [Idelalisib] + O=C(CCCCCCC(=O)Nc1ccccc1)NO [Vorinostat] (partner 1 µM)
How it was run: as §1

Row | Cell Line | relative viability (Pemetrexed + Navitoclax; first compound 0.002 µM) | relative viability (Pemetrexed + Navitoclax; first compound 0.006325 µM) | relative viability (Pemetrexed + Navitoclax; first compound 0.02 µM) | relative viability (Pemetrexed + Navitoclax; first compound 0.06325 µM) | relative viability (Pemetrexed + Navitoclax; first compound 0.2 µM) | relative viability (Idelalisib + Linsitinib; first compound 0.04 µM) | relative viability (Idelalisib + Linsitinib; first compound 0.1265 µM) | relative viability (Idelalisib + Linsitinib; first compound 0.4 µM) | relative viability (Idelalisib + Linsitinib; first compound 1.265 µM) | relative viability (Idelalisib + Linsitinib; first compound 4 µM) | relative viability (Pemetrexed + Alpelisib; first compound 0.002 µM) | relative viability (Pemetrexed + Alpelisib; first compound 0.006325 µM) | relative viability (Pemetrexed + Alpelisib; first compound 0.02 µM) | relative viability (Pemetrexed + Alpelisib; first compound 0.06325 µM) | relative viability (Pemetrexed + Alpelisib; first compound 0.2 µM) | relative viability (Idelalisib + Vorinostat; first compound 0.04 µM) | relative viability (Idelalisib + Vorinostat; first compound 0.1265 µM) | relative viability (Idelalisib + Vorinostat; first compound 0.4 µM) | relative viability (Idelalisib + Vorinostat; first compound 1.265 µM) | relative viability (Idelalisib + Vorinostat; first compound 4 µM)
1 | NCI-H2228 | 0.739 | 0.87 | 0.964 | 0.696 | 0.368 | 0.66 | 0.68 | 0.586 | 0.768 | 0.511 | 0.833 | 0.721 | 0.752 | 0.474 | 0.319 | 0.812 | 0.53 | 0.482 | 0.588 | 0.613
2 | LK-2 | 0.835 | 0.844 | 0.823 | 0.8 | 0.592 | 0.531 | 0.418 | 0.5 | 0.518 | 0.419 | – | 1.07 | 1.12 | 0.962 | 0.773 | 0.307 | 0.295 | 0.173 | 0.338 | 0.221
3 | PC-3 [JPC-3] | 0.726 | 0.762 | 0.796 | 0.89 | 0.749 | 0.972 | 0.976 | 0.986 | 0.95 | 0.893 | 0.948 | 1.04 | 1.04 | 1.03 | 0.972 | 1.04 | 0.952 | 0.841 | 0.86 | 0.747
4 | NCI-H596 | 0.98 | 0.811 | 0.828 | 0.898 | 0.419 | 1.07 | 1.06 | 0.899 | 1.19 | 1.03 | 0.409 | 0.485 | 0.593 | 0.39 | 0.374 | 0.622 | 0.595 | 0.511 | 0.567 | 0.415
5 | NCI-H460 | 0.945 | 1.1 | 1.33 | 0.388 | 0.0669 | 0.834 | 0.801 | 0.624 | 0.681 | 0.56 | 0.479 | 0.344 | 0.518 | 0.151 | 0.0576 | 0.526 | 0.783 | 0.692 | 0.525 | 0.686
6 | NCI-H647 | 1.13 | 0.987 | 1.15 | 0.954 | 0.308 | 0.882 | 1.19 | 0.93 | 0.805 | 0.976 | – | 1.02 | 1.3 | 0.836 | 0.296 | 0.686 | 0.435 | 0.546 | 0.247 | 0.141
7 | NCI-H838 | 1.17 | 1.12 | 1.33 | 0.893 | 0.361 | 0.926 | 1.01 | 0.891 | 1.01 | 0.8 | 0.989 | 0.878 | 1.14 | 0.934 | 0.372 | 0.752 | 0.731 | 0.68 | 0.716 | 0.618
8 | PC-14 | 0.976 | 0.976 | 1.05 | 0.428 | 0.129 | 0.971 | 0.978 | 0.929 | 0.97 | 0.901 | 0.897 | 0.958 | 0.931 | 0.535 | 0.158 | 0.901 | 0.709 | 0.633 | 0.363 | 0.68
9 | NCI-H1915 | 0.773 | 0.757 | 0.772 | 0.764 | 0.783 | 1.19 | 1.15 | 1.04 | 1.17 | 1.07 | 0.995 | 1.04 | 1.03 | 1.09 | 1.1 | 0.567 | 0.534 | 0.498 | 0.503 | 0.448
10 | 201T | 1.11 | 1.2 | 1.24 | 1.26 | 1.18 | 1.09 | 1.02 | 0.937 | 0.933 | 0.926 | 1.07 | 1.05 | 1.03 | 1 | 0.955 | 1.01 | 0.982 | 0.874 | 0.997 | 0.755
11 | NCI-H1437 | 0.988 | 1.05 | 1.02 | 0.575 | 0.291 | 1.05 | 1.09 | 0.974 | 1.02 | 1.05 | 0.877 | 0.939 | 0.884 | 0.506 | 0.227 | 0.902 | 0.932 | 0.895 | 0.964 | 0.903
12 | A-427 | 0.891 | 0.979 | 0.978 | 1.04 | 0.954 | 1.08 | 0.896 | 1.08 | 1.13 | 1.05 | 1.09 | 1.1 | 1.05 | 1.1 | 1.04 | 0.921 | 0.889 | 0.833 | 0.901 | 0.874
13 | HCC-366 | 1.07 | 0.95 | 0.974 | 1.02 | 0.963 | 0.619 | 0.598 | 0.444 | 0.578 | 0.253 | 0.448 | 0.507 | 0.365 | 0.452 | 0.376 | 0.391 | 0.36 | 0.33 | 0.293 | 0.325
14 | BEN | 0.0683 | 0.0717 | 0.0575 | 0.0762 | 0.0946 | 0.908 | 0.935 | 0.706 | 0.931 | 0.696 | 1.09 | 1.02 | 1.03 | 0.989 | 0.774 | 0.531 | 0.53 | 0.552 | 0.59 | 0.514
15 | NCI-H2347 | 0.659 | 0.805 | 0.776 | 0.619 | 0.391 | 0.931 | 0.884 | 0.857 | 1.14 | 0.514 | 0.858 | 0.893 | 1.07 | 0.869 | 0.633 | 0.639 | 0.572 | 0.511 | 0.624 | 0.403
16 | NCI-H1975 | – | 1.19 | 1.1 | 1.1 | 0.731 | 0.98 | 1.03 | 0.882 | 0.937 | 0.772 | – | 0.63 | 0.704 | 0.535 | 0.4 | 0.693 | 0.776 | 0.681 | 0.671 | 0.588
17 | NCI-H2126 | 0.828 | 0.827 | 0.882 | 0.833 | 0.82 | 0.71 | 0.715 | 0.685 | 0.698 | 0.625 | 0.737 | 0.758 | 0.75 | 0.703 | 0.742 | 0.932 | 0.865 | 0.464 | 0.861 | 0.671
18 | NCI-H2087 | 0.946 | 0.951 | 0.951 | 0.749 | 0.746 | 0.937 | 1.04 | 1.09 | 1.06 | 0.728 | 0.939 | 1.02 | 0.926 | 1.01 | 0.603 | 0.592 | 0.667 | 0.614 | 0.781 | 0.204
